Where “and” joins values, the source holds several entries; their conditions need not be identical. Equal entries are not always repeated. Where two headings read alike, the source gives them in different places.
Key:
rat pain model variants [1] = assay: Mechanical hyperalgesia (pinprick) in rat pain model variants; assay type: in vivo, Sprague Dawley rats; conditions: for Post Avg, Average Positive stimulations out of 6 total, Stim PP Pin Prick: n=12 rats; for Pinprick # ST[…]-ANALGESIC: of 6
Experimental: (§1) The methods of preparation and testing were similar for all the variant pain models described in this example. Male Sprague Dawley rats initially weighing between 150 and 175 grams were housed singly. Baseline behaviors to stimulations of the paw on which the procedure was to be performed were recorded over several sessions after accommodation of 3-4 days, and the results were averaged and used as the baseline control data. The pain behaviors studied were static mechanical allodynia (e.g., light touch stimulation with von Frey fibers 4.56, 4.73, 4.93, and/or 5.07), dynamic mechanical allodynia (e.g., stimulation with moving camel hair brush), and/or mechanical hyperalgesia (e.g., pinprick stimulation).
(§2) After the baseline control data was collected, the specified procedure with a gel was performed near the chosen nerve of each variant group (see Tables 2-6 and 8-10), then the rats were tested post procedurally and intermittently for up to 77 days for behavioral changes (see Tables 2-6 and 8-11) and for their responses to substances with analgesic properties (see Tables 7 and 12).
(§3) The stimuli used to elicit pain behavior were the von Frey fibers, camel hair brush and pinprick, with 6 stimulations of each stimulus. Each variant pain model had the same sequence of stimuli with the positive responses averaged and a student T-test performed for the significance of the post procedural responses as compared to the baseline control data (see Tables 2-6 and 11); and for the post-analgesic responses as compared to the pre-analgesic behavioral data (see Tables 7 and 12).
(§4) The tunnels identified by the above studies were then used for the placement of the biocompatible gels by the chosen peripheral nerves. The gelatinous or viscous substances (i.e., the gels) placed by the peripheral nerves or nerve roots contained collagen (e.g., AVITENE® and gelatin) or hydrogels. The “collagen gel” used in the present study was composed of 0.8 grams of collagen as AVITENE® (microfibrillar collagen hemostat flour, Davol Inc., Cranston, R.I. 02920) and 0.7 grams of collagen as gelatin (Knox gelatin, Kraft Foods, Northfield, Ill. 60093) mixed with 14 cc of normal saline until homogenous. Then the collagen mixture was placed in a PYREX® bowl resting in a paper bowl and covered with a ceramic saucer, then heated for 20 seconds at full power in a microwave. The resulting viscous mixture was kept fluid in a warm water bath at 100-110° F., until used for the placement procedure. The wound hydrogels used in the present study were two types: one contains alginate (SAF-Gel® from ConvaTec of E. R. Squibb & Sons, Princeton, N.J.) and the other contains acemannan from Aloe vera L. (Carrasyn®V from Carrington Laboratories, Irving, Tex.). […] Such hydrogels are used in the care of open dermal wounds as well as in first and second degree burns since they provide a closed moist environment for wound healing.
(§5) The rats were anesthesized with 1.5% to 2% isoflurane for the percutaneous kinesthetic placement of the above “gels” by the specified nerves. Using an angled 23 gauge thin wall 1″ needle, approximately 0.1 cc-0.2 cc of gel was placed percutaneously with kinesthetic technique in the anatomically defined fascial tunnels of the chosen peripheral nerves as described below.
(§6) The doses were given intraperitoneally (I.P.) and behavioral stimulus testing began 40-80 minutes after the dose. The student's t-test (p<0.05) was performed for determining the significance of changes in behaviors associated with pain after the analgesic was administered.

[2] = test system: open surgical rat model for CRPS I; conditions: prior art surgical model, Reyna et al. 1999; cited from earlier work
rat pain model variants [3] = assay type: in vivo, Sprague Dawley rats; conditions: n=12 rats
Experimental: Male Sprague Dawley rats initially weighing between 150 and 175 grams were housed singly. […] The pain behaviors studied were static mechanical allodynia (e.g., light touch stimulation with von Frey fibers 4.56, 4.73, 4.93, and/or 5.07), dynamic mechanical allodynia (e.g., stimulation with moving camel hair brush), and/or mechanical hyperalgesia (e.g., pinprick stimulation).
as §2
The stimuli used to elicit pain behavior were the von Frey fibers, camel hair brush and pinprick, with 6 stimulations of each stimulus.
as §4, §5, §6

rat pain model variants [4] = assay: Dynamic mechanical allodynia (camel hair brush) in rat pain model variants; assay type: in vivo, Sprague Dawley rats; conditions: n=12 rats
Experimental: as §1, §2, §3
The tunnels identified by the above studies were then used for the placement of the biocompatible gels by the chosen peripheral nerves. The gelatinous or viscous substances (i.e., the gels) placed by the peripheral nerves or nerve roots contained collagen (e.g., AVITENE® and gelatin) or hydrogels. […]

rat pain model variants [5] = assay: Analgesic effect in rat neurogenic pain model variants (overall statement); assay type: in vivo, Sprague Dawley rats; conditions: within 40-80 minutes
Experimental: as §1, §2, §3, §4, §5, §6

[6] = test system: Mice with Neural Compression; assay: von Frey fiber and camel hair brush testing for mechanical allodynia in mice with collagen placed by the posterior tibial nerve; assay type: in vivo; conditions: for Average # Paw Withdrawals: of 10 stimulations, n=10 mice
Experimental: Biocompatible collagen was prepared for use in the present study. The collagen source was dry gelatin that was prepared using sterile techniques. The dry collagen was measured to 2.5 grams and mixed with 7.5 cc of sterile normal saline. The mixture was heated for 30 seconds in a microwave on 80% power, The mixture was kept soft in warm water (approximately 100 to 110 degrees).
The consistency of the resulting warm collagen was such that it was able to pass through a 23 gauge needle. Humidity and other factors such as temperature can affect the consistency of the substance. 1-cc syringes were used for injection of 0.2 to 0.25 cc of collagen. For the injection, 23 gauge 1″ standard luer lock hypodermic needles were used. The needles were very slightly dulled with a metal file at the tip and edges using sterile technique. The needles were angled at the midpoint with a bevel tip up. The angle was between 30 and 45 degrees, but any angle that allows for easy placement of the injected substance could be used. The needles were then attached to the collagen-filled one cc syringes. The syringes were kept in a warm water bath (100 to 110° F.) to maintain proper gel consistency.
The mice were lightly anesthetized with 1.5 to 2% isoflurane. The mice were then stabilized and aligned such that the left posterior leg was in view. The external anatomic landmarks of the posterior popliteal area were identified. The internal anatomy of this area including the posterior tibial nerve with its artery was mentally visualized with kinesthetic techniques. Kinesthetic techniques are methods that use the kinesthetic sense or the integration of the senses by which movement, mass, turgor, shape, resistance, elasticity, temperature, spatial relationships and position are commonly perceived. It also refers to the integrated use of multiple senses such as touch, proprioception, vision, and hearing. After location of the site for placement of the gel, the needle and syringe were then removed from the warm water bath. The distal portion of the needle was held loosely parallel to the tibia. The needle was allowed to gently penetrate through the dermis by pulling the skin taut over the popliteal fossa. With careful avoidance of tissue resistance, the needle tip, bevel up, was gently slipped beneath the fascial edge of the soleus muscle by the tibial nerve and artery into the deep posterior fascial compartment of the posterior tibial neurovascular tunnel, which is the neurovascular tunnel for the posterior tibial nerve and its proximal branches. When the tip of the needle was at the mid soleus muscle belly, the collagen mixture was slowly injected into the posterior tibial tunnel. The needle was removed and the animals allowed to recover from the anesthetic. All animals were normally moving freely within 20 minutes of anesthesia withdrawal.
Two days after placement of the collagen gel around the nerve, von Frey testing was again performed. Von Frey testing continued for 49 days. […]

## NCC1(CC(=O)O)CCCCC1 [gabapentin]
Rat pain model variants [1]; Gabapentin 50 mg/kg (IP), Pre Avg 5.08, p=2.6E-5
  Post Avg, Average Positive stimulations out of 6 total, Stim PP Pin Prick: 2.25
[2]
  analgesic response: exhibited an analgesic response
Rat pain model variants [3]; Gabapentin 50 mg/kg (IP), Pre Avg 2.0, p=8.5E-5
  Post Avg, Average Positive stimulations out of 6 total, Stim A vF 4.56: 0.25
Rat pain model variants [3]; Gabapentin 50 mg/kg (IP), Pre Avg 2.42, p=4.4E-4
  Post Avg, Average Positive stimulations out of 6 total, Stim C vF 5.07: 0.75
Rat pain model variants [3]; Gabapentin 50 mg/kg (IP), Pre Avg 2.58, p=5.8E-5
  Post Avg, Average Positive stimulations out of 6 total, Stim B vF 4.93: 0.5
Rat pain model variants [4]; Gabapentin 50 mg/kg (IP), Pre Avg 3.25, p=9.5E-4
  Post Avg, Average Positive stimulations out of 6 total, Stim S Brush: 1.25
Rat pain model variants [5]; gabapentin 50 mg/kg IP, Table 12
  analgesic effect (significance): significant analgesic effects
Rat pain model variants [5]; gabapentin 50 mg/kg IP, Table 12, listed as Gabapentin
  analgesic effect (significance): significant analgesic effect
[6]; gabapentin 25 mg/kg IP, post procedure day 58 (9.14 before dose)
  Average # Paw Withdrawals: 6.86
[6]; gabapentin 40 mg/kg IP, post procedure day 65 (9.19 before dose)
  Average # Paw Withdrawals: 5.81
[6]; gabapentin 25 or 40 mg/kg IP
  Analgesic response (mechanical allodynia): Analgesic responses were shown

## CN1CC[C@]23c4c5ccc(O)c4O[C@H]2[C@@H](O)C=C[C@H]3[C@H]1C5.O=S(=O)(O)O [morphine, morphine sulfate]
Rat pain model variants [1]; Morphine 5 mg/kg IP, 1 rat peroneal n. with Avitene collagen, pre 6
  Pinprick # ST[…]-ANALGESIC: 1
Rat pain model variants [1]; Morphine 5 mg/kg IP, 1 rat tibial n. with Acemannan hydrogel, pre 6
  Pinprick # ST[…]-ANALGESIC: 2
Rat pain model variants [1]; Morphine 5 mg/kg IP, 1 rat tibial n. with Alginate hydrogel, pre 6
  Pinprick # ST[…]-ANALGESIC: 3
Rat pain model variants [1]; Morphine 5 mg/kg IP, single rats sciatic n. with Alginate hydrogel (two rats, pre 6 and 6), sulfate
  Pinprick # ST[…]-ANALGESIC: 2 and 4
Rat pain model variants [1]; Morphine 5 mg/kg IP, total of 5 rats, pre total 30, pre vs post p=2.1E-3
  Pinprick # ST[…]-ANALGESIC, Total: 12
Rat pain model variants [1]; Morphine Sulfate 5 mg/kg (IP), Pre Avg 5.67, p=2.0E-10
  Post Avg, Average Positive stimulations out of 6 total, Stim PP Pin Prick: 2.17
[2]
  analgesic response: exhibited an analgesic response
Rat pain model variants [3]; Morphine Sulfate 5 mg/kg (IP), Pre Avg 2.83, p=1.6E-4
  Post Avg, Average Positive stimulations out of 6 total, Stim A vF 4.56: 0.33
Rat pain model variants [3]; Morphine Sulfate 5 mg/kg (IP), Pre Avg 3.33, p=1.3E-6
  Post Avg, Average Positive stimulations out of 6 total, Stim B vF 4.93: 0.58
Rat pain model variants [3]; Morphine Sulfate 5 mg/kg (IP), Pre Avg 3.33, p=6.1E-6
  Post Avg, Average Positive stimulations out of 6 total, Stim C vF 5.07: 0.83
Rat pain model variants [4]; Morphine Sulfate 5 mg/kg (IP), Pre Avg 4.75, p=1.5E-6
  Post Avg, Average Positive stimulations out of 6 total, Stim S Brush: 1.69
Rat pain model variants [5]; morphine 5 mg/kg IP, Tables 7 and 12, listed as Morphine, sulfate
  analgesic effect (significance): significant analgesic effect
Rat pain model variants [5]; morphine 5 mg/kg IP, Tables 7 and 12, listed as morphine Sulfate, sulfate
  analgesic effect (significance): significant analgesic effects
[6]; morphine 1 mg/kg IP, post procedure day 49 (8.71 before dose)
  Average # Paw Withdrawals: 8.71
[6]; morphine 5 mg/kg IP, post procedure day 51 (8.88 before dose)
  Average # Paw Withdrawals: 6.66
[6]; morphine at least 5 mg/kg IP
  Analgesic response (mechanical allodynia): Analgesic responses were shown
